Reference: patent US10508120B2, “TYK2 inhibitors and uses thereof” (Nimbus Lakshmi, Inc., priority 2017, dated 2019)

These molecules were tested against human TYK2 (JH2domain-pseudokinase) (Homo sapiens (Human), UniProt P29597) (assay: TYK2 JH2 Domain Binding Assay (KINOMEscan)).
Method: Binding constants for compounds of the present invention against the JH2 domain were determined by the following protocol for a KINOMEscan® assay (DiscoveRx). A fusion protein of a partial length construct of human TYK2 (JH2domain-pseudokinase) (amino acids G556 to D888 based on reference sequence NP_003322.3) and the DNA binding domain of NFkB was expressed in transiently transfected HEK293 cells. From these HEK 293 cells, extracts were prepared in M-PER extraction buffer (Pierce) in the presence of Protease Inhibitor Cocktail Complete (Roche) and Phosphatase Inhibitor Cocktail Set II (Merck) per manufacturers' instructions. The TYK2 (JH2domain-pseudokinase) fusion protein was labeled with a chimeric double-stranded DNA tag containing the NFkB binding site (5′-[…]-3′) fused to an amplicon for qPCR readout, which was added directly to the expression extract (the final concentration of DNA-tag in the binding reaction is 0.1 nM).
The liganded beads were blocked with excess biotin and washed with blocking buffer (SeaBlock (Pierce), 1% BSA, 0.05% Tween 20, 1 mM DTT) to remove unbound ligand and to reduce nonspecific binding.
Extracts were used directly in binding assays without any enzyme purification steps at a ≥10,000-fold overall stock dilution (final DNA-tagged enzyme concentration <0.1 nM). Extracts were loaded with DNA-tag and diluted into the binding reaction in a two step process. First extracts were diluted 1:100 in 1× binding buffer (PBS/0.05% Tween 20/10 mM DTT/0.1% BSA/2 μg/ml sonicated salmon sperm DNA) containing 10 nM DNA-tag. This dilution was allowed to equilibrate at room temperature for 15 minutes and then subsequently diluted 1:100 in 1× binding buffer. […] Kds were determined using an 11-point 3-fold compound dilution series with three DMSO control points. […] The compounds were then diluted directly into the assays such that the final concentration of DMSO was 0.9%. All reactions performed in polypropylene 384-well plates. Each was a final volume of 0.02 mL. Assays were incubated with shaking for 1 hour at room temperature. Then the beads were pelleted and washed with wash buffer (1×PBS, 0.05% Tween 20) to remove displaced kinase and test compound. […] The qPCR protocol consisted of a 10 minute hot start at 95° C., followed by 35 cycles of 95° C. for 15 seconds, 60° C. for 1 minute.
Kds were determined using an 11-point 3-fold compound dilution series with three DMSO control points. […] The compounds were then diluted directly into the assays such that the final concentration of DMSO was 0.9%. The Kds were determined using a compound top concentration of 30,000 nM. Kd measurements were performed in duplicate.
Binding constants (Kds) were calculated with a standard dose-response curve using the Hill equation: […]
The Hill Slope was set to −1.

Sequence of human TYK2 (JH2domain-pseudokinase) (P29597 556-888): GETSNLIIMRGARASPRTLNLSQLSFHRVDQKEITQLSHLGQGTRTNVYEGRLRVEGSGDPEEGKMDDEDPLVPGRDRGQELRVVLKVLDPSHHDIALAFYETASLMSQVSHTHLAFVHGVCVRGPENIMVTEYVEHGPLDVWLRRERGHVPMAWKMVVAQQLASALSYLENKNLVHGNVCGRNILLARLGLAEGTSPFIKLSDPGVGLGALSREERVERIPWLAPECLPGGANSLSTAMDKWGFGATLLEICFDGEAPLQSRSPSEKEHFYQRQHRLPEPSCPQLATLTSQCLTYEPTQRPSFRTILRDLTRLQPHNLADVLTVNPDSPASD

Row | Compound | Kd
1 | CNc1cc(Nc2cccn(C3CCOCC3)c2=O)nc2c(C(=O)N[C@@H]3CCC[C@@](C)(OC)C3)cnn12 [I-1201] | 0.2 to 1 nM
2 | CNc1cc(Nc2cccn([C@H]3C[C@@H]3F)c2=O)nc2c(C(=O)N[C@@H]3CC[C@H](O)C3)cnn12 [I-1202] | 1 to 10 nM
3 | CNc1cc(Nc2cccn([C@@H]3C[C@H]3F)c2=O)nc2c(C(=O)N[C@@H]3CC[C@H](O)C3)cnn12 [I-1203] | < 0.2 nM
4 | CNc1cc(Nc2cccn([C@H]3C[C@@H]3F)c2=O)nc2c(C(=O)N[C@H]3CC[C@@H]3OC)cnn12 [I-1204] | < 0.2 nM
5 | CNc1cc(Nc2cccn([C@@H]3C[C@H]3F)c2=O)nc2c(C(=O)N[C@H]3CC[C@@H]3OC)cnn12 [I-1205] | < 0.2 nM
6 | CNc1cc(Nc2cccn(C3CC(F)(F)C3)c2=O)nc2c(C(=O)N[C@H]3COC[C@H]3O)cnn12 [I-1206] | 1 to 10 nM
7 | CNc1cc(Nc2cccn(C3CC(F)(F)C3)c2=O)nc2c(C(=O)N[C@@H]3CCC[C@@](C)(O)C3)cnn12 [I-1208] | 1 to 10 nM
8 | CNc1cc(Nc2cccn(C3CC(F)(F)C3)c2=O)nc2c(C(=O)N[C@@H]3CC[C@@H](OC)C3)cnn12 [I-1210] | 0.2 to 1 nM
9 | CNc1cc(Nc2cccn(C3CC(F)(F)C3)c2=O)nc2c(C(=O)N[C@@H]3CC[C@@H](O)C3)cnn12 [I-1211] | < 0.2 nM
10 | CNc1cc(Nc2cccn(C3CC(F)(F)C3)c2=O)nc2c(C(=O)N[C@@H]3CC[C@H](O)C3)cnn12 [I-1212] | > 10 nM
11 | CNc1cc(Nc2cccn([C@H]3CCCN(CCF)C3)c2=O)nc2c(C(=O)N[C@H]3CC[C@@H]3OC)cnn12 [I-1215] | < 0.2 nM
12 | CNc1cc(Nc2cccn([C@H]3CCCN(CCF)C3)c2=O)nc2c(C(=O)N[C@@H]3CC[C@H]3OC)cnn12 [I-1216] | 0.2 to 1 nM
13 | CNc1cc(Nc2cccn(-c3cccnc3)c2=O)nc2c(C(=O)N[C@H]3CCC[C@H](OC)C3)cnn12 [I-1217] | < 0.2 nM
14 | CNc1cc(Nc2cccn(-c3cccnc3)c2=O)nc2c(C(=O)N[C@@H]3CCC[C@@H](OC)C3)cnn12 [I-1218] | 1 to 10 nM
15 | CNc1cc(Nc2cccn([C@@H]3CCC[C@H](C#N)C3)c2=O)nc2c(C(=O)N[C@@H]3C[C@@H]3F)cnn12 [I-1219] | < 0.2 nM
16 | CNc1cc(Nc2cccn([C@H]3CCC[C@@H](C#N)C3)c2=O)nc2c(C(=O)N[C@@H]3C[C@@H]3F)cnn12 [I-1220] | 0.2 to 1 nM
17 | CNc1cc(-c2cn(C3CCOCC3)c3ncccc23)nc2c(C(=O)N[C@@H]3CCC[C@@]3(C)O)cnn12 [I-1221] | 0.2 to 1 nM
18 | CNc1cc(-c2cn(C3CCOCC3)c3ncccc23)nc2c(C(=O)N[C@H]3CCC[C@]3(C)O)cnn12 [I-1222] | < 0.2 nM
19 | CNc1cc(-c2cn([C@H]3CCC[C@@H]3OC)c3ncccc23)nc2c(C(=O)N[C@H]3CC[C@H]3O)cnn12 [I-1223, N-((1S,2R)-2-hydroxycyclobutyl)-5-(1-((1S,2S)-2-methoxycyclopentyl)-1H-pyrrolo[2,3-b]pyridin-3-yl)-7-(methylamino)pyrazolo[1,5-a]pyrimidine-3-carboxamide] | 0.2 to 1 nM
20 | CNc1cc(-c2cn([C@H]3CCC[C@@H]3OC)c3ncccc23)nc2c(C(=O)N[C@@H]3CC[C@@H]3O)cnn12 [I-1224, N-((1R,2S)-2-hydroxycyclobutyl)-5-(1-((1S,2S)-2-methoxycyclopentyl)-1H-pyrrolo[2,3-b]pyridin-3-yl)-7-(methylamino)pyrazolo[1,5-a]pyrimidine-3-carboxamide] | 1 to 10 nM
21 | CNc1cc(Nc2cccn(C3CCOCC3)c2=O)nc2c(C(=O)N[C@H]3CCC[C@H](O)C3)cnn12 [I-1225] | < 0.2 nM
22 | CNc1cc(Nc2cccn(C3CCOCC3)c2=O)nc2c(C(=O)N[C@@H]3CCC[C@@H](O)C3)cnn12 [I-1226] | 1 to 10 nM
23 | CNc1cc(Nc2cccn([C@@H]3C[C@H]3OC)c2=O)nc2c(C(=O)NC3CC3)cnn12 [I-1227] | < 0.2 nM
24 | CNc1cc(Nc2cccn([C@H]3C[C@@H]3OC)c2=O)nc2c(C(=O)NC3CC3)cnn12 [I-1228] | 1 to 10 nM
25 | CNc1cc(-c2cn(CCCO)c3ncc(F)cc23)nc2c(C(=O)N[C@@H]3CC[C@H]3OC)cnn12 [I-1229] | < 0.2 nM
26 | CNc1cc(-c2cn(CCCO)c3ncc(F)cc23)nc2c(C(=O)N[C@H]3CC[C@@H]3OC)cnn12 [I-1230] | 0.2 to 1 nM

Row | Compound | Kd
27 | CCO[C@H]1CC[C@@H]1NC(=O)c1cnn2c(NC)cc(Nc3cccn(-c4ccccn4)c3=O)nc12 [I-1231] | < 0.2 nM
28 | CCO[C@@H]1CC[C@H]1NC(=O)c1cnn2c(NC)cc(Nc3cccn(-c4ccccn4)c3=O)nc12 [I-1232] | 0.2 to 1 nM
29 | CNc1cc(Nc2cccn([C@@H]3C[C@H]3OC)c2=O)nc2c(C(=O)N[C@H]3CC[C@@H]3OC)cnn12 [I-1233] | 1 to 10 nM
30 | CNc1cc(Nc2cccn([C@H]3C[C@@H]3OC)c2=O)nc2c(C(=O)N[C@H]3CC[C@@H]3OC)cnn12 [I-1234] | 0.2 to 1 nM
31 | CNc1cc(Nc2cccn(C(C)C)c2=O)nc2c(C(=O)N[C@@H]3CCC[C@@](C)(OC)C3)cnn12 [I-1235] | < 0.2 nM
32 | CNc1cc(Nc2cccn([C@@H]3CCCOC3)c2=O)nc2c(C(=O)N[C@@H]3CCC[C@@](C)(OC)C3)cnn12 [I-1236] | < 0.2 nM
33 | CNc1cc(Nc2cccn([C@H]3CCCOC3)c2=O)nc2c(C(=O)N[C@@H]3CCC[C@@](C)(OC)C3)cnn12 [I-1237] | > 10 nM
34 | CNc1cc(Nc2cccn3ccnc23)nc2c(C(=O)N[C@@H]3CCC[C@@]3(C)O)cnn12 [I-1238] | < 0.2 nM
35 | CNc1cc(Nc2cccn3ccnc23)nc2c(C(=O)N[C@H]3CCC[C@]3(C)O)cnn12 [I-1239] | < 0.2 nM
36 | CNc1cc(Nc2cccn(C(C)C)c2=O)nc2c(C(=O)N[C@@H]3CCC[C@@]3(C)O)cnn12 [I-1240] | < 0.2 nM
37 | CNc1cc(Nc2cccn(C(C)C)c2=O)nc2c(C(=O)N[C@H]3CCC[C@]3(C)O)cnn12 [I-1241] | < 0.2 nM
38 | CNc1cc(Nc2cccn(C(C)C)c2=O)nc2c(C(=O)N[C@H]3CCC[C@](C)(O)C3)cnn12 [I-1242] | < 0.2 nM
39 | CNc1cc(Nc2cccn(C(C)C)c2=O)nc2c(C(=O)N[C@@H]3CCC[C@@](C)(O)C3)cnn12 [I-1243] | 1 to 10 nM
40 | CNc1cc(Nc2cccn([C@@H]3CCC[C@H](C#N)C3)c2=O)nc2c(C(=O)NC3CC3)cnn12 [I-1244] | < 0.2 nM
41 | CNc1cc(Nc2cccn([C@H]3CCC[C@@H](C#N)C3)c2=O)nc2c(C(=O)NC3CC3)cnn12 [I-1245] | 0.2 to 1 nM
42 | CNc1cc(-c2cn([C@@H]3CCC[C@H]3OC)c3ncccc23)nc2c(C(=O)N[C@H]3CC[C@H]3O)cnn12 [I-1246, N-((1S,2R)-2-hydroxycyclobutyl)-5-(1-((1R,2R)-2-methoxycyclopentyl)-1H-pyrrolo[2,3-b]pyridin-3-yl)-7-(methylamino)pyrazolo[1,5-a]pyrimidine-3-carboxamide] | 0.2 to 1 nM
43 | CNc1cc(-c2cn([C@@H]3CCC[C@H]3OC)c3ncccc23)nc2c(C(=O)N[C@@H]3CC[C@@H]3O)cnn12 [I-1247, N-((1R,2S)-2-hydroxycyclobutyl)-5-(1-((1R,2R)-2-methoxycyclopentyl)-1H-pyrrolo[2,3-b]pyridin-3-yl)-7-(methylamino)pyrazolo[1,5-a]pyrimidine-3-carboxamide] | < 0.2 nM
44 | CNc1cc(Nc2cccn([C@H]3CCCOC3)c2=O)nc2c(C(=O)N[C@@H]3C[C@H]3OC)cnn12 [I-1248] | < 0.2 nM
45 | CNc1cc(Nc2cccn([C@H]3CCCOC3)c2=O)nc2c(C(=O)N[C@H]3C[C@@H]3OC)cnn12 [I-1249] | < 0.2 nM
46 | CNc1cc(-c2cn([C@@H]3CCCOC3)c3ncccc23)nc2c(C(=O)N[C@H]3COC[C@H]3O)cnn12 [I-1250, N-(4-hydroxytetrahydrofuran-3-yl)-7-(methylamino)-5-(1-((R)-tetrahydro-2H-pyran-3-yl)-1H-pyrrol[2,3-b]pyridin-3-yl)pyrazol[1,5-a]pyrimidine-3-carboxamide] | 0.2 to 1 nM
47 | CNc1cc(Nc2cccn([C@H]3CC[C@@H]3O)c2=O)nc2c(C(=O)N[C@@H]3CCC[C@@H](OC)C3)cnn12 [I-1252] | < 0.2 nM
48 | CNc1cc(Nc2cccn([C@@H]3CC[C@H]3O)c2=O)nc2c(C(=O)N[C@@H]3CCC[C@@H](OC)C3)cnn12 [I-1253] | > 10 nM
49 | CNc1cc(-c2cn([C@@H]3CCCOC3)c3ncccc23)nc2c(C(N)=O)cnn12 [I-1255] | 0.2 to 1 nM
50 | CNc1cc(-c2cn([C@H]3CCCOC3)c3ncccc23)nc2c(C(N)=O)cnn12 [I-1256] | < 0.2 nM
51 | CNc1cc(-c2cn([C@H]3CCCOC3)c3ncccc23)nc2c(C(=O)N[C@H]3CC[C@H]3O)cnn12 [I-1258] | > 10 nM
52 | CNc1cc(Nc2cccn(-c3ocnc3C)c2=O)nc2c(C(=O)N[C@H]3CC[C@H]3O)cnn12 [I-1259] | > 10 nM
